# In US9200319B2, “Nucleotides and nucleosides and methods for their use in DNA sequencing” (Lasergen, Inc., priority 2008, dated 2015):
# Experiment: chemical cleavage by palladium-catalysed hydrogenolysis
# Settings: heterogenous catalyst, palladium on activated carbon (10 wt. %), hydrogen, ethanol, room temperature; TLC/HPLC
# Description: Chemical Cleavage Using Heterogenous Palladium Catalyst: To a solution of 5-(benzyloxy)methyl-2′-deoxyuridine (29 mg, 0.082 mmol) in absolute ethanol (2 mL) under a nitrogen atmosphere was added 10 mg of palladium on activated carbon (10 wt. %, 10 mg) (CAUTION: flammable solid! Ensure handling in oxygen-free atmosphere). The mixture was flushed with hydrogen gas and stirred at room temperature for 30 minutes while being monitored by TLC every five minutes. The mixture was filtered, concentrated under reduced pressure, and dried under vacuum to yield thymidine (18 mg, 88%) that was identified by comparison to the authentic sample (TLC and ^1H NMR).
# Chemical Cleavage Using Homogenous Palladium Catalyst: To a solution of 5-(benzyloxy)methyl-2′-deoxyuridine (3.48 mg, 0.01 mmol) in absolute ethanol (0.1 mL) under a nitrogen atmosphere a solution of sodium tetrachloropalladate (II) (0.6 mg, 0.002 mmol) in absolute ethanol (0.9 mL) was added. The mixture was flushed with hydrogen gas and stirred at room temperature while being monitored by TLC every five minutes. After 20 minutes TLC indicated complete disappearance of starting material. The sole cleavage product was identified to be thymidine by comparison to the authentic sample on TLC.
# (§1) Chemical Cleavage Using Heterogenous Palladium Catalyst: To a solution of 5-(2-isopropylbenzyloxy)methyl-2′-deoxyuridine in absolute ethanol (10 mM, 1 mL) under a nitrogen atmosphere was added of palladium on activated carbon (10 wt. %, 2 mg) (CAUTION: flammable solid! Ensure handling in oxygen-free atmosphere). The mixture was flushed with hydrogen gas and stirred at room temperature for five minutes while being monitored by TLC every one minute. After five minutes TLC indicated complete disappearance of starting material. The sole cleavage product was identified to be thymidine by comparison to the authentic sample on TLC.
# as §1, with “To” for “To a”, “5-(2-phenylbenzyloxy)methyl-2′-deoxyuridine” for “5-(2-isopropylbenzyloxy)methyl-2′-deoxyuridine”, “added” for “added of”, “1” for “one”
# as §1, with “5-(2,6-dimethylbenzyloxy)methyl-2′-deoxyuridine” for “5-(2-isopropylbenzyloxy)methyl-2′-deoxyuridine”, “added” for “added of”, “1” for “one”
# To a solution of 5-benzyloxy-2′-deoxyuridine (10 mg) in ethanol (1 mL) was added Pd/C (10%, 10 mg), and the mixture was stirred for five minutes. Hydrogen was introduced to the system via a balloon and the reaction mixture was stirred at room temperature. Aliquots (5 μL) were taken out from the reaction mixture at various time point intervals and were analyzed by thin layer chromatography and HPLC. Complete cleavage to thymidine was observed after ten minutes at room temperature (Scheme 42 and FIG. 4). The intermediate of the cleavage was identified to be 5-hydroxymethyl-dU generated from initial removal of benzyl group, and HOMedU was further reduced to thymidine. […]
row,SMILES,time to complete cleavage to thymidine
1,CC(C)C(OCc1cn([C@H]2C[C@H](O)[C@@H](CO)O2)c(=O)[nH]c1=O)c1ccccc1 (stereo partly drawn) [5-(1-phenyl-2-methyl-propyloxy)methyl-2′-deoxyuridine],240 min
2,"Cc1cccc(C)c1COCc1cn([C@H]2C[C@H](O)[C@@H](CO)O2)c(=O)[nH]c1=O [5-(2,6-dimethylbenzyloxy)methyl-2′-deoxyuridine]",five
3,CC(C)c1ccccc1COCc1cn([C@H]2C[C@H](O)[C@@H](CO)O2)c(=O)[nH]c1=O [5-(2-isopropylbenzyloxy)methyl-2′-deoxyuridine],five
4,O=c1[nH]c(=O)n([C@H]2C[C@H](O)[C@@H](CO)O2)cc1COCc1ccccc1-c1ccccc1 [5-(2-phenylbenzyloxy)methyl-2′-deoxyuridine],five
5,O=c1[nH]c(=O)n([C@H]2C[C@H](O)[C@@H](CO)O2)cc1COCc1ccccc1 [5-(benzyloxy)methyl-2′-deoxyuridine],ten

# Same assay, conditions: homogenous catalyst, sodium tetrachloropalladate (II), hydrogen, ethanol, room temperature; TLC
row,SMILES,time to complete disappearance of starting material (cleavage to thymidine) [min]
1,O=c1[nH]c(=O)n([C@H]2C[C@H](O)[C@@H](CO)O2)cc1COCc1ccccc1 [5-(benzyloxy)methyl-2′-deoxyuridine],20
